One may read the KD as the constant that tells how readily two partners part at equilibrium. Higher therefore signals weaker binding. Broadly, the ΔTm is the change in melting temperature against a reference sample.

Each structure is given as a SMILES string.

The subject of test [1] is RB promoter i-motif, 5'-FAM (DNA, i motif) GCCGCCCAAAACCCCCCG
Description: MST. As to conditions: 100 mM K+; 20 mM MES, pH 5.5, 25 °C.

Test [2] concerns RB promoter G-quadruplex, 5'-FAM (DNA, G4) CGGGGGGTTTTGGGCGGC
Description: MST. As to conditions: 100 mM K+; 50 mM Tris-HCl, pH 7.4, 25 °C.

Test [3] concerns RB IM, 5'-biotin (SPR) (DNA, i motif) GCCGCCCAAAACCCCCCG
Put plainly: SPR. The note with it: 100 mM K+, 20 mM MES, pH 5.5, 25 °C.

The test system of test [4] is hairpin (DNA, hairpin) CGCGCGCGTTTTCGCGCGCG
Description: SPR. As to conditions: buffer for hairpin not stated.

The test system of test [5] is RB G4 (RB promoter G-quadruplex) (DNA, G4) CGGGGGGTTTTGGGCGGC
Description: CD melting. The note with it: 100 mM K+; 50 mM Tris-HCl, pH 7.4; 2 μM DNA; compound concentration not in material.

The test system of test [6] is RB IM (RB promoter i-motif) (DNA, i motif) GCCGCCCAAAACCCCCCG
Description: SPR. The note with it: 100 mM K+; 20 mM MES, pH 5.5, 25 °C.

Test [7] has as its system hairpin (DNA, hairpin) CGCGCGCGTTTTCGCGCGCG
Put plainly: SPR. As to conditions: 25 °C; highest concentration not stated.

The subject of test [8] is ACC2 IM (DNA, i motif) TGACCCGCCCCCGCCCCGCCCCTGT
Description: SPR. The note with it: 100 mM K+; 20 mM MES, pH 5.5, 25 °C.

Test [9] relates to ACC2 G4 (DNA, G4) GGGGCGGGGCGGGGGCGGG
Description: SPR. As to conditions: 100 mM K+; 50 mM Tris-HCl, pH 7.4, 25 °C.

For test [10], the system named is RET G4 (DNA, G4) GGGGCGGGGCGGGGGGGGG
Description: SPR. The note with it: 100 mM K+; 50 mM Tris-HCl, pH 7.4, 25 °C.

For test [11], the system named is c-jun IM (DNA, i motif) TAACCCCCTCCCCCTCCCCCCTTTAAT
Put plainly: SPR. As to conditions: 100 mM K+; 20 mM MES, pH 5.5, 25 °C.

Test [12] relates to c-jun G4 (DNA, G4) AAGGGGGGAGGGGGAGGGGGTT
Put plainly: SPR. As to conditions: 100 mM K+; 50 mM Tris-HCl, pH 7.4, 25 °C.

The test system of test [13] is kras G4 (DNA, G4) AGGGCGGTGTGGGAAGAGGGAAGAGGGGGAGG
Put plainly: SPR. The note with it: 100 mM K+; 50 mM Tris-HCl, pH 7.4, 25 °C.

The test system of test [14] is RB IM (RB promoter i-motif) (DNA, i motif) GCCGCCCAAAACCCCCCG
Description: CD melting. The note with it: 100 mM K+; BPES buffer (pH 5.5 per i-motif experiments); 2 μM DNA; compound concentration not in material.

The test system is the same in test [15]. Put plainly: TO displacement fluorescence. As to conditions: 100 mM K+; BPES buffer, pH 5.5, 25 °C; 1 μM DNA; thiazole orange (TO) displaced.
In test [16] the test system is RB G4 (RB promoter G-quadruplex) (DNA, G4) CGGGGGGTTTTGGGCGGC
Put plainly: TO displacement fluorescence. The note with it: 100 mM K+; 50 mM Tris-HCl, pH 7.4, 25 °C; 1 μM DNA; thiazole orange (TO) displaced.

On to `Cc1ccc2nc3ccccc3c(NCCNCCNc3c4ccccc4nc4ccc(C)cc34)c2c1`, for which the KD in [1] is 18.06 ± 5.28 µM; in [2], 0.50 ± 0.27 µM; in [3] (Table S2 prints 9.24), 13.6 µM; in test [4], > 50 µM. The ΔTm in test [5] was −9.9 °C.
Turning to `C[n+]1c(/C=C/c2c3ccccc3cc3ccccc23)ccc2ccccc21`, the KD is 36.7 µM in test [6] and 36.7 µM in test [3] (unit not printed in Table S2, μM in text).
For `CN(CCCNc1c2ccccc2nc2ccccc12)CCCNc1c2ccccc2nc2ccccc12`, the KD in [6] is 2.44 µM; in test [1] it was 0.43 ± 0.24 µM; in test [2], 2.50 ± 0.65 µM; in test [7], > 50 µM; in test [8] it was 41.7 µM; in test [9], 53.1 µM. The KD in [10] came to 30.9 µM; in [11], 27.0 µM; in test [12], 43.9 µM; in test [13] it was 32.5 µM. The ΔTm is −10.7 °C in test [14] and −6.4 °C in test [5]. Further, the results for the DC50 in [15] and in test [16] were 3.4 µM and 2.7 µM, respectively.

Values taken from publication PMC11855212 (2025).
